Experimental data published in publication PMC4792161, “A novel pyrazole derivative protects from ovariectomy-induced osteoporosis through the inhibition of NADPH oxidase” (Scientific Reports, 2016).
Marks after values point to notes of the source that are not given here.

How the values were obtained:
bone density = tested on: bone density; design: method as in PMID 16754727; details: estrogen replacement; cited from earlier work
[1] = tested on: OVX-induced osteoporotic ddY mice; assay: Tibia weights (wet, dry, ash) in OVX mice; format: in vivo; details: 2.5 mg/kg oral once daily 28 days
Description: (§1) The right sides of femur and tibia were weighed and then dried at 120 °C for 8 hours. The dried bones were carbonized at 800 °C for 6 hours in a furnace (Daihan Scientific, Korea) to detect ash absolute weights, after measurement of BMD and failure load. To reduce the individual body weight differences, the relative weight (%) was calculated using body weight at sacrifice and absolute weight as [Relative bone weights = (Absolute bone weight/Body weight at sacrifice) ×100]. In addition, ashed bones were ground and dissolved in nitric acid. In diluted solution, Ca and P contents were calculated (mg/g bone) using an orthocresolphthalein complex and enzyme methods, respectively. The Ca/P ratio (%) was calculated as (Tibia Ca contents/Tibia P contents) ×100.
Supplementary Table S4. Tibia Weights in OVX Mice Values are expressed mean ± S.D. of eight mice Risedronate sodium was administered at 2.5mg/kg levels a p<0.01 as compared with sham control […]
material OVX = ovariectomy
Groups Tibia absolute weights (g) Tibia relative weights (% of body weight)Wet Dry Ash Wet Dry Ash

[2] = tested on: OVX-induced osteoporotic ddY mice; assay: Femur histopathology-histomorphometry in OVX mice; format: in vivo; details: 2.5 mg/kg oral once daily 28 days
Description: Risedronate sodium (2.5 mg/kg) served as a reference compound. […] Histopathology and histomorphometrical analyses including trabecular bone volume (BV/TV), trabecular bone number (Tb.N), trabecular bone length (Tb.Le), trabecular bone thickness (Tb.Th), cortical bone thickness (Ct.Th), OC number (N.Oc), bone mineral density (BMD) and bone strength (failure load, FL) were conducted.
(§2) The study was reviewed and approved by the Institutional Animal Care and Use Committee (IACUC) of Center for Laboratory Animal Sciences, Ewha Industry-University Cooperation Foundation, Ewha Womans University. Experimental methods were carried out in accordance with the approved ethic guidelines in Ewha Industry-University Cooperation Foundation, Ewha Womans University. Beginning 4 weeks after OVX, the female ddY mice received 2.5, 5, 10, or 20 mg/kg of #18–278, 2.5 mg/kg of risedronate, or vehicle once daily for 28 days. The Changes in body weight, bone weight, bone mineral density (BMD), failure load (FL), bone calcium (Ca), inorganic phosphorus (P) contents, histology and histomorphology were monitored. Serum osteocalcin and bone specific alkaline phosphatase (bALP) were monitored in mice receiving Ewha-18278.
The left side of femur of each mouse was separated and fixed in 10% neutral buffered formalin and decalcified in a solution comprised of 24.4% formic acid and 0.5N sodium hydroxide for 5 days, with spent solution replaced with fresh solution each day. Each sample was embedded in paraffin, sectioned to a thickness of 3–4 μm and exposed to with Hematoxylin & Eosin (H&E) stain. Histomorphometry was conducted as for bone mass and structure with bone resorption in a uniform area of epiphyseal regions of femur (growth plate regions were excluded). Cortical bone thickness was measured in the mid-shaft region of the femur.

OVX rats = details: 2.5 mg/kg/day for 8 weeks; cited from earlier work
[3] = tested on: OVX-induced osteoporotic ddY mice; assay: Femur weights (wet, dry, ash) in OVX mice; format: in vivo; details: 2.5 mg/kg oral once daily 28 days
Description: as §1

[4] = Body weight changes in OVX mice; format: in vivo, ddY mice; details: risedronate 2.5 mg/kg; Ewha-18278 2.5, 5, 10 and 20 mg/kg; 28 days
Description: as §2
R esi dronat e 2. 5mg/kg t reated mi ce […]
D ay after administration (d)
Supplementary Figure S7. Body weight changes in OVX mice. We selected eight mice per group showing more increases of body weights as compared with sham-operated mice and regarded as good OVX animals at four weeks after OVX surgery, consequently, significant increases of body weights were detected in all OVX groups as compared with sham control mice throughout 28 days of […]
mice, in the present study. Values are expressed mean ± S.D. of eight mice. Risedronate sodium was administered at 2.5mg/kg levels. […]

[5] = tested on: OVX-induced osteoporotic ddY mice; assay: Bone strength (failure load, three-point bending test) in OVX mice; format: in vivo; details: oral once daily 28 days; risedronate 2.5 mg/kg
[6] = tested on: OVX-induced osteoporotic ddY mice; assay: Tibia histopathology-histomorphometry in OVX mice; format: in vivo; details: 2.5 mg/kg oral once daily 28 days
[7] = Direct ROS (H2O2) scavenging in vitro; details: 1 mM NAC, 1 mM H2O2, control scavenger
Source text: Based on the notion that the differentiation of OCs is mediated by Nox1/2/4-dependent ROS generation, we have performed a high throughput enzyme inhibitor screening assay to identify chemical compounds having Nox1/2/4 inhibitory activity for the development of an anti-osteoporosis agent. Purified Drosophila membranes expressing human Nox1, Nox2, or Nox4 were used to monitor ROS production by determining the oxidation of lucigenin, evident as chemiluminescence, in the absence or presence of chemical compound[18]. A chemical library containing 31,000 compounds was screened to identify Nox inhibitors. […] (Fig. 1B, Supplementary Fig. S2). […] Moreover, we investigated whether Ewha-18278 can directly scavenge ROS in vitro.
Supplementary Figure S3. (A) Ewha-18278 compounds can not directly scavenge superoxide or other reactive species in vitro. ROS (H2O2) measured with lucigenin. Reaction mixtures contained 1 […]
Luminescence measured over 30 min at 37
°C with luminometor (Gloma X luminometor, Turner BioSystem). […]
the phagocytosis of zymosan. […]
incubated with FITC-zymosan particles, and internalized fluorescence was measured by flow cytometry. The data are presented as the MFI of internalized FITC. Data represent mean ± S.D. […]

Structure (SMILES): O=C(c1ccc(OCCN2CCCCC2)cc1)c1c(-c2ccc(O)cc2)sc2cc(O)ccc12 [Raloxifene]
- increase of bone density (bone density): 3–4%

Structure (SMILES): O=P(O)(O)C(O)(Cc1cccnc1)P(=O)(O)O [Risedronate, Risedronate sodium, reference compound]
- Tibia absolute weights, Ash [1]: 0.031 g
- Tibia absolute weights, Dry [1]: 0.050 g
- Tibia absolute weights, Wet [1]: 0.071 g
- Tibia relative weights, Ash [1]: 0.085 % of body weight
- Tibia relative weights, Dry [1]: 0.137 % of body weight
- Tibia relative weights, Wet [1]: 0.196 % of body weight
- BV/TV (trabecular bone volume) [2]: 38.08 ± 7.20 ^c %
- Ct.Th (cortical bone thickness) [2]: 128.36 ± 15.57 ^a μm
- N.OC/BS (osteoclast cell number, N/epiphyseal) [2]: 19.00 ± 2.93 ^eg numbers
- Tb.Le (trabecular bone length) [2]: 1.04 ± 0.12 ^ac mm
- Tb.N (trabecular bone number, N/epiphyseal) [2]: 24.50 ± 4.00 ^eg numbers
- Tb.Th (trabecular bone thickness) [2]: 47.25 ± 4.73 ^ad μm
- microstructural and biomechanical features of bone (OVX rats): maintains microstructural and biomechanical features of bone
- Femur absolute weights, Ash [3]: 0.037 g
- Femur absolute weights, Dry [3]: 0.066 g
- Femur absolute weights, Wet [3]: 0.096 g
- Femur relative weights, Ash [3]: 0.102 % of body weight
- Femur relative weights, Dry [3]: 0.181 % of body weight
- Femur relative weights, Wet [3]: 0.263 % of body weight
- body weights as compared with OVX control mice [4]: no meaningful changes
- bone strength (FL) of femur and tibia compared to control OVX [5]: did not show any favorable effects
- BV/TV (trabecular bone volume) [6]: 35.71 ± 5.63 ^c %
- Ct.Th (cortical bone thickness) [6]: 113.81 ± 14.45 ^a μm
- N.OC/BS (osteoclast cell number, N/epiphyseal) [6]: 19.38 ± 3.20 ^ac numbers
- Tb.Le (trabecular bone length) [6]: 0.76 ± 0.12 ^ac mm
- Tb.N (trabecular bone number, N/epiphyseal) [6]: 19.25 ± 1.67 ^bc numbers
- Tb.Th (trabecular bone thickness) [6]: 43.52 ± 8.73 ^ac μm

Structure (SMILES): CC(=O)N[C@@H](CS)C(=O)O [N-acetyl cysteine, reference compound]
- change in hydrogen peroxide concentration (ROS scavenging) [7]: decrease in hydrogen peroxide concentration
